{"source": "patent US9730915B2", "about": "(OBSCHESTVO S OGRANICHENNOI OTVETSTVENNOSTIYU …, priority 2013, dated 2017)", "key": {"IFNAR1 mRNA": {"system": "IFNAR1 mRNA", "assay": "mRNA synthesis of interferon receptor subunit IFNAR1, Real Time PCR in A-549 cells", "format": "cell-based", "settings": "100 ng/mL, 16 hours after the treatment (FIG. 1)", "procedure": "(§1) A continuous cell line A-549 was treated with glutaryl histamine at a concentration of 100 ng/mL. […] The RNAs were isolated by using RNEASY® Kit (Qiagen). The RNA preparation was treated with DNAase (RNase-free DNaseI (Ambion). Reverse transcription was performed by using THERMOSCRIPT™ RT-PCR System (Invitrogen). Quantitative PCR was carried out with the primers: […]"}, "IFNAR2 mRNA": {"system": "IFNAR2 mRNA", "assay": "mRNA synthesis of interferon receptor subunit IFNAR2, Real Time PCR in A-549 cells", "format": "cell-based", "settings": "100 ng/mL, 16 hours after the treatment (FIG. 1)", "procedure": "as §1"}, "IFNAR1": {"system": "IFNAR1", "assay": "Density of interferon receptor subunit IFNAR1 on the surface of primary human macrophages (antibody staining, optical density)", "format": "cell-based", "settings": "primary human macrophages, 0.1, 1.0, 10 or 100 ng/mL, 24 hours (FIG. 2)", "procedure": "(§2) A 10-day primary culture of human macrophages in 96-well plates was incubated for 24 hours in the presence of glutaryl histamine at concentrations: 0.1, 1.0, 10 or 100 ng/mL or without it. […] The preparation was visualized by staining with horseradish peroxidase-labeled secondary antibodies and adding a substrate. Optical density was measured using an ELISA spectrophotometer."}, "IFNAR2": {"system": "IFNAR2", "assay": "Density of interferon receptor subunit IFNAR2 on the surface of primary human macrophages (antibody staining, optical density)", "format": "cell-based", "settings": "primary human macrophages, 0.1, 1.0, 10 or 100 ng/mL, 24 hours (FIG. 2)", "procedure": "as §2"}, "protein MxA": {"system": "protein MxA", "assay": "Cell sensitivity to interferon: MxA protein immunoblot in A-549 cells", "format": "cell-based", "settings": "for synthesis of MxA protein: glutaryl histamine 100 ng/mL plus 1 IU interferon-alpha", "source_text": "Cell lysates were undergone to the procedure of immunoblot analysis (western blotting) by using monoclonal antibodies against to protein MxA (sc-50509, Santa Cruz Biotechnology) to stain membranes by a chemiluminescence method using a substrate (chemiluminescent reagent SUPER SIGNAL® West Femto Chemiluminescent Substrate (Thermo Fisher Scientific))."}, "[1]": {"system": "herpes simplex virus HSV-1/CL", "assay": "Murine model of herpes meningoencephalitis, HSV-1/CL", "format": "in vivo", "settings": "mice", "procedure": "(§3) Mice were intracerebrally infected with herpes simplex virus HSV-1/CL and HSV-2/VN in a dose of 30 μl comprising 10 LD50.\n(§4) A therapeutic effect of glutaryl histamine was studied by once-daily oral administration of 200 μl of the drug to the infected mice at a dose of 30 mg/kg 24, 48, 72, 96, and 120 hours after infection with the virus. Mice of the control group were administered placebo under the same conditions ([…] of a physiological solution). The animals were monitored for 14 days after infection, and fatal cases among mice from herpes meningocephalitis were registered in the treated and control groups. Activity of the drug was evaluated by comparing mortality rates of animals treated with glutaryl histamine relative to animals of the control group. A reduction in the mortality rate of the treated animals relative to the control was expressed in percentage."}, "[2]": {"system": "herpes simplex virus HSV-2/VN", "assay": "Murine model of herpes meningoencephalitis, HSV-2/VN", "format": "in vivo", "settings": "mice", "procedure": "as §3, §4"}, "[3]": {"assay": "Toxic reactions and side effects on administration"}}, "note": "Several values for one entry are separate records, joined by “and”; a condition that tells them apart may be missing. Equal entries are not always repeated.", "data": [{"smiles": "O=C(O)CCCC(=O)NCCc1c[nH]cn1", "note": "[glutaryl histamine]", "values": [{"measurement": "increase in the mRNA synthesis of subunit IFNAR1", "setting": "IFNAR1 mRNA", "result": "at least in a two-folded increase"}, {"measurement": "increase in the amount of the mRNA of subunit IFNAR2", "setting": "IFNAR2 mRNA", "result": "three-fold increase"}, {"measurement": "density of IFNAR1 on the cell surface (signal in antibody staining)", "setting": "IFNAR1", "result": "noticeably increased level of the signal"}, {"measurement": "density of IFNAR2 on the cell surface (signal in antibody staining)", "setting": "IFNAR2", "result": "noticeably increased level of the signal"}, {"measurement": "synthesis of MxA protein", "setting": "protein MxA; 8 hours (line 5, FIG. 3)", "result": "increased synthesis"}, {"measurement": "synthesis of MxA protein", "setting": "protein MxA; 24 hours (line 6, FIG. 3)", "result": "increased synthesis"}, {"measurement": "accumulation of MxA protein", "setting": "protein MxA; glutaryl histamine 100 ng/mL, not treated with interferon (lines 1, 2, 3, FIG. 3)", "result": "did not cause the accumulation"}, {"measurement": "Mortality rate, %", "setting": "[1]; HSV-1 strain CL intracerebral 10 LD50, oral once daily 24-120 h after infection, 14 days monitoring, control 95.0", "result": 65, "unit": "%"}, {"measurement": "Life expectancy, days M ± σ", "setting": "[1]; HSV-1 strain CL, 14 days monitoring, control 4.8 ± 3.1", "result": "8.1 days and 8.1 ± 4.9 days"}, {"measurement": "Protection index, %", "setting": "[1]; HSV-1 strain CL, reduction in mortality relative to control", "result": 31.6, "unit": "%"}, {"measurement": "Life expectancy, days M ± σ", "setting": "[2]; HSV-2, 14 days monitoring, control 6.1 ± 4.3", "result": "10.2 days and 10.2 ± 4.8 days"}, {"measurement": "Protection index, %", "setting": "[2]; HSV-2, reduction in mortality relative to control", "result": 47.1, "unit": "%"}, {"measurement": "Mortality rate, %", "setting": "[2]; HSV-2 intracerebral 10 LD50, oral once daily 24-120 h after infection, 14 days monitoring, control 85.0", "result": 45, "unit": "%"}, {"measurement": "toxic reactions and other side effects", "setting": "[3]; accompanying the therapeutic effect", "result": "not accompanied by toxic reactions and other side effects"}, {"measurement": "adverse side effects", "setting": "[3]; long-term administration in therapeutic doses or doses greater by an order of magnitude", "result": "has not demonstrated adverse side effects"}]}]}
